Reference: US6525045B2, “Positive allosteric AMPA receptor modulators” (Boehringer Ingelheim Pharma KG, priority 2000, dated 2003)

How the values were obtained:
AMPA receptors = assay: Electrophysiological measurement of intensification of the agonist-induced current on cells expressing functional AMPA receptors; type: cell-based; design: key: + good; ++ very good activity; details: concentrations between 0.3 μmol and 300 μmol
Description: Particular mention should be made of those applications in which the positive modulation of AMPA receptors plays a part. The effect of the compounds according to the invention as AMPA receptor modulators was measured electrophysiologically on cells which express functional AMPA receptors. Investigations were carried out to see whether the test substances have a positive allosteric influence on the agonist-induced current.
The test was carried out at concentrations of between 0.3 μmol and 300 μmol.

| Compound | melting point [°C] | Effectiveness: Intensification of the agonist-induced current (AMPA receptors) |
| --- | --- | --- |
| CN1Cc2c(C#N)ccc3scc(c23)S1(=O)=O [Example 16, 4-methyl-3,3-dioxo-4,5-dihydro-3H-1,3-dithia-4-aza-acenaphthylene-6-carbonitrile] | 238 | – |
| CCN1Cc2cccc3scc(c23)S1(=O)=O [Example 2, 4-ethyl-4.5-dihydro-1,3-dithia-4-aza-acenaphthylene 3,3-dioxide] | – | + |
| CN1Cc2c(Br)ccc3scc(c23)S1(=O)=O [Example 11, 6-bromo-4-methyl-4,5-dihydro-1,3-dithia-4-aza-acenaphthylene-3,3-dioxide] | 203 | – |
| CN1Cc2cccc3scc(c23)S1(=O)=O [Example 1, 4-methyl-4,5-dihydro-1,3-dithia-4-aza-acenaphthylene 3,3-dioxide] | – | ++ |
| CN1Cc2ccc(Cl)c3scc(c23)S1(=O)=O [Example 3, 8-chloro-4-methyl-4,5-dihydro-1,3-dithia-4-aza-acenaphthylene 3,3-dioxide] | – | + |
| 6-chloro-4-methyl-4,5-dihydro-1.3-dithia-4-aza-acenaphthylene 3.3-dioxide [Example 5] | – | + |
| CN1Cc2c(F)ccc3scc(c23)S1(=O)=O [Example 4, 6-fluoro-4-methyl-4,5-dihydro-1,3-dithia-4-aza-acenaphthylene 3,3-dioxide] | – | ++ |
